Values belong to the compound of their own block, whether it stands above or below them.
What was measured:
[1] = Effects on membrane: flux and EC rejection rate before/after contact with agent
[2] = Effect of amount added of iodide ions on oxidation-reduction potential (ORP); type: physicochemical; details: sodium hypochlorite 1 mg/L as Cl2, stirred 3 minutes after potassium iodide addition
Procedure: A sodium hypochlorite aqueous solution was added to ultrapure water prepared with a prescribed pH value in sufficient amount to provide 1 mg/L as Cl2, potassium iodide was then added to the solution and stirred for 3 minutes, and the oxidation-reduction potential (ORP) was then measured. […] The oxidation-reduction potential (ORP) was measured using an ORP meter (RM-2oP) manufactured by DKK-TOA Corporation.

Flux after contact ([1]; ESPA2, pH 7, after contact at CT value 30,000): 4.1 m/(d · MPa)
Flux before contact ([1]; ESPA2, pH 7, baseline before contact with agent): 2.0 m/(d · MPa)
SMILES: OCl [NaClO, sodium hypochlorite]

ORP ([2]; pH 4): 837 mV
SMILES: [Na+].[O-]Cl [Reference Example 8, sodium hypochlorite]

ORP ([2]; pH 7): 638 mV
SMILES: [Na+].[O-]Cl [Reference Example 10, sodium hypochlorite]

ORP ([2]; pH 10): 359 mV
SMILES: [Na+].[O-]Cl [Reference Example 12, sodium hypochlorite]
